Entries after “also recorded” stand apart in the source; their conditions may differ.
Assays:
[1] = test system: transplanted sarcoma of the uterus SM-322; test: Transplanted mouse sarcoma SM-322 model; type: in vivo, CBA mice; conditions: for Percent decrease in tumour volume relative to control: SM-322
Description: Anticancer Activity of Hepreceptor Peptides on the Growth of Transplanted Sarcoma of the Uterus SM-322 and on Cancer of the Uterine Cervix CUS-5 Performed in CBA Mice Using Rupe312 and Rupe414 as Examples Transplanted mouse sarcoma SM-322 model (endothelial tumour). Primary tumours of the uterus were induced in female mice using 1.2 dimethylhydrazine. A few primary tumours were transplanted into syngeneic mice. The first visible nodules started to appear at the point of transplation after 4 days. The life expectancy of the mice with transplanted tumours was 22-24 days. […] The tumours were introduced as a 0.5 ml of tumour suspension (1 g tumour per 10 ml of Igla medium) and ten mice used in each treatment group. […] The average percent decrease of tumour volume relative to the control group was recorded at three time points. The longevity of the mice in the treatment groups and control groups was compared and the histology of the tumours between control and treatment groups was compared.

[2] = test system: transplanted cervical cancer CUC-5; test: Transplanted mouse cervical cancer model CUC-5; type: in vivo, CBA mice; conditions: for Percent decrease in tumour volume relative to control / Days of life expectancy: CUC-5; for Days of life expectancy: control 47-76
Description: Anticancer Activity of Hepreceptor Peptides on the Growth of Transplanted Sarcoma of the Uterus SM-322 and on Cancer of the Uterine Cervix CUS-5 Performed in CBA Mice Using Rupe312 and Rupe414 as Examples
Transplanted mouse cervical cancer model CUC-5 (epithelial tumour)
Primary tumours were induced in female mice using methylcholantrene. A few primary turnouts were then auto-transplanted into the uterine cervix. The life expectancy of mice with transplanted tumours was 43 days.
CBA female mice weighed 21.4=/−1.2 g. and were 2-3 months old. The tumours were introduced as a 0.5 ml of tumour suspension (1 g tumour per 10 ml of Igla medium) and ten mice used in each treatment group.
Lyophylised peptide were dissolved in sterile physiological saline immediately before use in three concentrations. 0.5 ml of solution was injected twice weekly into the peritoneum of the mice for the duration of the experiment. Three different concentrations of peptide were used leading to three final doses per injection per mouse of 10, 1.0 and 0.1 micrograms.
The average percent decrease of tumour volume relative to the control group was recorded at three time points. The longevity of the mice in the treatment groups and control groups was compared and the histology of the tumours between control and treatment groups was compared.

activated macrophages = test: Induction of activated macrophages in mice (peritoneal exsudate); type: in vivo
Description: Groups of three mice (CDAxC57B1)F1 weighing 22-24 g were injected abdominally with each peptide solution of 1.0 microgram of peptide dissolved in 0.5 ml of physiological saline. After 24 hours the animals were killed using neck vertebrae dislocation and 5 ml of Hanks solution was injected into the abdomen. The abdomen was massaged for 30 seconds and then the peritoneal liquid was collected. The collected liquid was filtered using a nylon filter into siliconised tubes containing 1.5 mg/ml EDTA. The number of nucleus containing cells in […] of filtrate were then assessed under microscopic examination using a Nihon hemocytometer. The cells were pelleted by centrifugation for 5 minutes at 800 g, the pellet was resuspended in fetal calf serum, the cell suspension was dropped on to a glass microscope slide and dried then fixed in methanol and stained with Romanovski's colouring agent. Morphological analysis of the cells of the peritoneal exsudate were performed using an Opton optical microscope at 1600 magnifications. The number of lymphocytes, resting macrophages, activated macrophages, granulocytes and other cell types were assessed.

[3] = test system: human Peripheral Blood Mononuclear Cells; test: In vitro activation of human PBMC, tritiated thymidine incorporation; type: cell-based; conditions: for incorporation of 3H thymidine: three days, Control 370
Description: Peripheral Blood Mononuclear Cells (PBMC) were separated from the peripheral blood of a […] donor using the standard method of fractionation in a ficoll gradient. The PBMC were suspended in culture medium containing RPMI1640 medium plus 10% fetal calf serum, 1 mM L-glutamin and antibiotics (BM). The cell suspension was placed in wells of a 96 hole microwell plate for cell cultivation, (100 microliters of suspension containing 100,000 cells per well). […] The negative control well contained BM but no peptide. The plate was incubated at 37° C. for three days then radioactive ^3H thymidine was added to a final concentration of 1 microcurie per ml. The incorporation of ^3H thymidine into the DNA of the cells was measured using a betacounter using standard procedures. The experiment was repeated twice and the results expressed as an average of the two experiments in radioactive counts per minute.

[4] = test system: HLA Class I on human White Blood Cells; test: Expression of MHC (HLA) Class I on human White Blood Cells; type: cell-based; conditions: 0.003 micrograms per ml
Description: A cell specific effect of this activation was an increase in the population of monocytes expressing MHC Class I and a decrease in the population of CD8 lymphocytes expressing MHC Class I.

[5] = test system: transplanted sarcoma of the uterus SM-322; test: Transplanted mouse sarcoma SM-322 model; type: in vivo, CBA mice; conditions: control 12-16
[6] = 0.1 Microg/mouse IP twice weekly, Day 8
[7] = 0.1 Microg/mouse IP twice weekly, Day 12
[8] = 1 Microg/mouse IP twice weekly, Day 8
[9] = 1 Microg/mouse IP twice weekly, Day 12
[10] = 10 Microg/mouse IP twice weekly, Day 8
[11] = 10 Microg/mouse IP twice weekly, Day 12
[12] = 0.1 Microg/mouse IP twice weekly
[13] = 10 Microg/mouse IP twice weekly

With “KRRETVEREKE (Hepreceptor peptide) [Rupe414]” the “Percent decrease in tumour volume relative to control” value [1, 6] was 68%, the “Percent decrease in tumour volume relative to control” value [1, 7] was 39% and the “Percent decrease in tumour volume relative to control” value ([1]; 0.1 Microg/mouse IP twice weekly, Day 15) was 22%. The “Percent decrease in tumour volume relative to control” value [1, 8] was 68%, the “Percent decrease in tumour volume relative to control” value [1, 9] was 28% and the “Percent decrease in tumour volume relative to control” value ([1]; 1 Microg/mouse IP twice weekly, Day 15) was 43%. The “Percent decrease in tumour volume relative to control” value [1, 10] was 65%, the “Percent decrease in tumour volume relative to control” value [1, 11] was 43% and the “Percent decrease in tumour volume relative to control” value ([1]; 10 Microg/mouse IP twice weekly, Day 15) was 43%. The “histology of the tumours” value ([1]; both models (SM-322 and CUC-5)) was “non bleeding ulcerous destruction of the centre of tumours”, the “Percent decrease in tumour volume relative to control” value [2, 6] was 50% and the “Percent decrease in tumour volume relative to control” value [2, 7] was 18%. For the same sequence, the “Percent decrease in tumour volume relative to control” value ([2]; 0.1 Microg/mouse IP twice weekly, Day 19) was 57%, the “Days of life expectancy” value [2, 12] was 47 to 76 days and the “Percent decrease in tumour volume relative to control” value [2, 8] was 50%. The “Percent decrease in tumour volume relative to control” value [2, 9] was 16%, the “Percent decrease in tumour volume relative to control” value ([2]; 1 Microg/mouse IP twice weekly, Day 19) was 43% and the “Days of life expectancy” value ([2]; 1 Microg/mouse IP twice weekly) was 36 to 76 days. The “Percent decrease in tumour volume relative to control” value [2, 10] was 50%, the “Percent decrease in tumour volume relative to control” value [2, 11] was 16% and the “Percent decrease in tumour volume relative to control” value ([2]; 10 Microg/mouse IP twice weekly, Day 19) was 48%. For the same sequence, the “Days of life expectancy” value [2, 13] was 36 to 76 days, the “change in life expectancy” value ([2]; slower growing transplanted cervical cancer) was “no significant increase (or decrease) in life expectancy was detected” and the “activity in increasing activated macrophages relative to HEP1” value (activated macrophages; 1.0 microgram peptide/mouse) was “significantly more active than HEP1”. The “Activated macrophages as a percent of total number of cells” value (activated macrophages; 1.0 microgram peptide/mouse injected abdominally, after 24 hours, saline 1.9) was 8.5%, the “activity relative to HEP1” value ([3]; PBMC activation, thymidine incorporation) was “significantly more active than HEP1; also recorded: ten fold higher activity than HEP1” and the “concentration of peak activity” value ([3]; PBMC proliferation) was “around 3 nanograms/ml”. The “incorporation of 3H thymidine” value ([3]; Peptide 0.0001 micro g/ml) was 493 radioactive counts per minute, the “incorporation of 3H thymidine” value ([3]; Peptide 0.0003 micro g/ml) was 580 radioactive counts per minute and the “incorporation of 3H thymidine” value ([3]; Peptide 0.001 micro g/ml) was 684 radioactive counts per minute. For the same sequence, the “incorporation of 3H thymidine” value ([3]; Peptide 0.003 micro g/ml) was 2087 radioactive counts per minute, the “incorporation of 3H thymidine” value ([3]; Peptide 0.01 micro g/ml) was 650 radioactive counts per minute and the “incorporation of 3H thymidine” value ([3]; Peptide 0.03 micro g/ml) was 596 radioactive counts per minute. For the same sequence, the “incorporation of 3H thymidine” value ([3]; Peptide 0.1 micro g/ml) was 485 radioactive counts per minute, the “incorporation of 3H thymidine” value ([3]; Peptide 0.3 micro g/ml) was 492 radioactive counts per minute and the “incorporation of 3H thymidine” value ([3]; Peptide 1 micro g/ml) was 449 radioactive counts per minute. The “incorporation of 3H thymidine” value ([3]; Peptide 3 micro g/ml) was 437 radioactive counts per minute, the “incorporation of 3H thymidine” value ([3]; Peptide 10 micro g/ml) was 394 radioactive counts per minute and the “relative activity in lowering intensity of HLA expression on WBC” value ([4]; 24 hours) was “more active than HEP1”. The “Density of cell surface expression of HLA Class I, rebased to 100 for control” value (“Density” for short) ([4]; B and NK cells, 24 hours) was 77, the “Percentage of cell population expressing HLA Class I, rebased to 100 for control” value (from here on “Percentage”) ([4]; B and NK cells, 24 hours) was 101 and the “Density” value ([4]; CD4 lymphocytes, 24 hours) was 77. For the same sequence, the “Percentage” value ([4]; CD4 lymphocytes, 24 hours) was 105, the “Density” value ([4]; CD8 lymphocytes, 24 hours) was 76 and the “Percentage” value ([4]; CD8 lymphocytes, 24 hours) was 89. The “Density” value ([4]; Granulocytes, 24 hours) was 85, the “Percentage” value ([4]; Granulocytes, 24 hours) was 98 and the “Percentage” value ([4]; Monocytes/Macrophages, 24 hours) was 109. The “Density” value ([4]; Monocytes/Macrophages, 24 hours at 37° C.) was 83, the “Days of life expectancy” value [5, 12] was 12 to 19 days and the “Days of life expectancy” value ([5]; 1 Microg/mouse IP twice weekly) was 12 to 20 days. The “Days of life expectancy” value [5, 13] was 13 to 20 days.
